Marks after values point to notes of the source that are not given here.
How the values were obtained:
DU145 = experiment: SRB viability test, DU145 human prostate cancer cell line expressing tissue factor; assay type: cell-based; conditions: for O.D. 570 nm, SRB Viability Test: 48 hrs, Mean S.D.
Method: DU145 cells were plated with 2×10^4 cells/100 μl/well in a 96 well plate and cultured overnight. The cells were cultured for 48 hrs. Cultures was terminated by adding 40% TCA to a final concentration of 10%. Cells were fixed in TCA at 4° for 1 hr, washed with tap water 5 times and air dried. Sulforhodamine B (SRB) solution (100 μl) at 0.4% (w/v) in 1% acetic acid was added to each well, and the cells were incubated for 10 mins at room temperature. After staining, unbound dye was removed by washing five times with 1% acetic acid and air dried. […] Assays were performed in triplicate or quadruplicate. An asterisk (*) indicates p<0.0001 by the Student t-test (two-tailed probability). The concentration of EF24-FFRck-fVIIa was estimated based on protein concentration.

MDA-MB-231 = experiment: Neutral Red (NR) viability test, human breast cancer MDA-MB-231; assay type: cell-based; conditions: Mean ± S.E.
Method: (§1) The Neutral Red (NR) dye viability assay, instead of the Sulforhodamine B (SRB) assay, was used. In the NR viability assay, NR dye is taken up only by viable cells, while in the SRB viability assay, viable cells are fixed by trichloracetic acid (TCA) on the plate (thus, cells are killed), and the fixed cells are stained by SRB dye.
(§2) At the termination of culture, medium was removed and 200 μl of fresh, warm medium containing 50 μg of NR/ml was added to each well in a 96-well plate. Cells were incubated at 37° for 30 mins, followed by two washes with 200 μl of PBS. The NR taken up by cells was dissolved by adding 200 μl of 0.5N HCI containing 35% ethanol. The amount of the dye in each well was read at 570 nm by an ELISA plate reader.

RPMI-7951 = experiment: Neutral Red (NR) viability test, human melanoma RPMI-7951; assay type: cell-based; conditions: Mean ± S.E.
Method: as §1, §2

normal human melanocytes = experiment: NR viability test, normal human melanocytes (no tissue factor); assay type: cell-based; conditions: Mean ± S.D.
Method: as §1, §2

MCF10 = experiment: NR viability test, MCF10 normal human breast luminal ductal cell line (no tissue factor); assay type: cell-based; conditions: Normal Breast Cells (MCF10), Mean ± S.D.
Method: as §1, §2

HUVECs [1] = experiment: SRB viability test (NCI method), normal HUVECs not expressing tissue factor; assay type: cell-based, human; conditions: Mean ± S.D.
tumor cells = experiment: NCI screening system, tumor cells; assay type: cell-based
Method: Curcumin, EF24 and cisplatin were tested against tumor cells in the NCI screening system. Curcuminoids were also added to transformed breast cancer cells and the mean growth inhibitory concentrations determined, as shown in FIG. 5.

[2] = test system: cells with or without tissue factor on the cell surface; experiment: Cell killing in relation to tissue factor expression on the cell surface (summary); assay type: cell-based
Excerpt: One aspect of the present invention provides novel compositions comprising cytotoxic compounds such as synthetic antitumor and anti-angiogenesis curcumin analogs (curcuminoids) linked to a protein delivery vehicle that can deliver the cytotoxic compoun specifically to cancer cells and vascular endothelial cells having surface-bound tissue factor. Novel compositions of the present invention can comprise a curcuminoid covalently linked to a tether which may be, but is not limited to, a dicarboxylic acid such as succinate. The tether is covalently linked to a N-terminal amino acid of a peptidyl linker such as phenylalanine-phenylalanine-arginine, the C-terminal amino acid of which comprises a methylketone. […] Preferably, the curcuminoid-tether-linker will have bonded to an amino acid of the serine protease domain of the fVIIa, thereby blocking the procoagulating activity of the novel therapeutic composition. The present invention also provides methods of synthesis of cytotoxic compound-protein conjugates. The compositions and methods of the present invention may increase the efficacy of the cytotoxic agents and decrease their side effects by delivering the agents to specific target cells. […] The conjugate EF24-FFRck-fVIIa construct of the present invention kills cancer cell lines and vascular endothelial cells, such as HUVECs, that express tissue factor on the cell surface.

HUVECs [3] = experiment: Neutral Red viability assay, HUVECs; assay type: cell-based, human; conditions: 24 hrs
Method: (§3) HUVECs, MS-1 cells and SVR cells were cultured to confluence and agents were incubated for 24 hrs. Cell viability was determined by Neutral Red assays. Among synthetic curcumin analogs, A279L, A279U and EF-15 were not cytotoxic at 20 μM. MS-I cells were murine vascular endothelial cells which were immortalized by transfection of SV40 large T antigen but are non-maligant. However, when MS-1 cells were transfected with a ras mutant gene, cells were transformed to become malignant angiosarcoma cells, (SVR cells).

MS-1 cells = experiment: Neutral Red viability assay, MS-1 cells; assay type: cell-based, murine; conditions: 24 hrs
Method: as §3

SVR cells = experiment: Neutral Red viability assay, SVR cells; assay type: cell-based, murine; conditions: 24 hrs
Method: as §3

Cell cytotoxicity assays = assay type: cell-based
Method: Of several compounds examined, the succinic acid derivative aa (86% yield) was suitable since it retained 50% of the activity of EF24 in cell cytotoxicity assays. To synthesize the succinyl derivative aa of EF24, to a solution of EF24 (0.16 g, 0.5 mmol) in anhydrous CH2Cl2 (6 ml) was added succinic anhydride (0.057 g, 0.5 mmol) and Et3N (101 mg, 1 mmol). The mixture was stirred at room temperature for 3 hrs, diluted with CH2Cl2, washed twice with saturated NaHCO3 (2×10 ml) and brine, dried over anhydrous Na2SO4, and relieved of solvent by evaporation. The resulting solid was purified by flash chromatography using benzene/acetone/acetic acid (27:10:0.5) as the eluant to obtain the yellow solid aa ([…], mp 145° C., 86% yield). [drawing 15]

SMILES	O.D. 570 nm, SRB Viability Test (DU145; DU145, 0.8 pM)	O.D. 570 nm, SRB Viability Test (DU145; DU145, 8 pM)	O.D. 570 nm, NR Viability Test (MDA-MB-231; MDA231, 1 pM)	O.D. 570 nm, NR Viability Test (MDA-MB-231; MDA231, 2 pM)	O.D. 570 nm, NR Viability Test (RPMI-7951; RPM17951, 1 pM)	O.D. 570 nm, NR Viability Test (RPMI-7951; RPM17951, 2 pM)	O.D 570 nm, NR Viability Test (normal human melanocytes; 0.8 pM)	O.D 570 nm, NR Viability Test (normal human melanocytes; 4 pM)	O.D 570 nm, NR Viability Test (MCF10; 0.8 pM)	O.D 570 nm, NR Viability Test (MCF10; 4 pM)	O.D. 490 nm, SRB Viability Test (HUVECs [1]; 0.8 pM)	O.D. 490 nm, SRB Viability Test (HUVECs [1]; 8 pM)	killing of cancer cells and normal cells regardless of tissue factor expression [2]	also measured
O=C1/C(=C/c2ccccc2F)CNC/C1=C\c1ccccc1F [EF24, 3,5-Bis-(2-fluorobenzylidene)-piperidin-4-one]	0.391 ± 0.041	0.053 ± 0.025*	0.172 ± 0.020	0.109 ± 0.014	0.220 ± 0.023	0.119 ± 0.018	0.255 ± 0.009	0.119 ± 0.009	0.104 ± 0.018	0.091 ± 0.007	0.136 ± 0.010	0.038 ± 0.010	indiscriminatingly kills	potency relative to cisplatin (tumor cells): about 10 times; effectiveness against tumor cells compared with cisplatin or curcumin (tumor cells; NCI screening system, FIG. 4): significantly more effective
N=C(N)NCCC[C@H](NC(=O)[C@H](Cc1ccccc1)NC(=O)[C@@H](Cc1ccccc1)NC(=O)CCC(=O)N1C/C(=C\c2ccccc2F)C(=O)/C(=C/c2ccccc2F)C1)C(=O)CCl [EF24-FFRck]	0.389 ± 0.021	0.383 ± 0.027	0.191 ± 0.013	0.171 ± 0.009	0.253 ± 0.018	0.247 ± 0.020	0.252 ± 0.007	0.249 ± 0.015	0.101 ± 0.013	0.113 ± 0.003	0.152 ± 0.026	0.160 ± 0.038	does not kill	cell killing (DU145; EF24-FFRck alone, Table 2): does not kill any cells
COc1cc(/C=C/C(=O)CC(=O)/C=C/c2ccc(O)c(OC)c2)ccc1O [Curcumin, diferuloylmethane]														Neutral Red Viability Assay (% of Control) (HUVECs [3]; 1 μM): 103 % of Control; Neutral Red Viability Assay (% of Control) (HUVECs [3]; 20 μM): 21 % of Control; Neutral Red Viability Assay (% of Control) (MS-1 cells; 1 μM): 90 % of Control; Neutral Red Viability Assay (% of Control) (MS-1 cells; 20 μM): 3 % of Control; Neutral Red Viability Assay (% of Control) (SVR cells; 1 μM): 88 % of Control; Neutral Red Viability Assay (% of Control) (SVR cells; 20 μM): 4 % of Control
O=C(O)CCC(=O)N1C/C(=C\c2ccccc2F)C(=O)/C(=C/c2ccccc2F)C1 [aa]														activity retained relative to EF24 in cell cytotoxicity assays (Cell cytotoxicity assays): 50%

— US20060229239A9, “Novel curcuminoid-factor VIIa constructs as suppressors of tumor growth and angiogenesis” (priority 2002, published 2006)
